Test results published in patent US20200062696A1, “COMPOSITIONS AND METHODS FOR INHIBITING RETICULON 4” (THE REGENTS OF THE UNIVERSITY OF CALIFORNIA, priority 2017, published 2020).

Columns and labels:
[1] = test system: SW620 tumor xenograft; assay: SW620 tumor xenograft growth in immune-deficient SCID mice; type: in vivo; conditions: 50 mg/kg ip once per day, started ten days after subcutaneous injection of SW620 cells
Procedure: Tumor Xenograft Growth Studies. C.B17 SCID male mice (6-8 weeks old) were injected subcutaneously into the flank with 2,000,000 cells in serum-free media. For pharmacological treatments, mice were exposed by intraperitoneal (ip) injection with either vehicle (18:1:1 PBS/ethanol/PEG40) or 50 mg/kg DKM 3-30 once per day starting ten days after the initiation of the xenograft experiment and until the completion of the study. Tumors were measured every 7 days by caliper measurements. Animal experiments were conducted in accordance with the guidelines of the Institutional Animal Care and Use Committee of the University of California, Berkeley.

[2] = Body weight and overt toxicity of mice in the tumor xenograft study; type: in vivo; conditions: 50 mg/kg ip once per day, weighed at the end of the study
Procedure: Mice from tumor xenograft studies shown in FIG. 1E were weighed at the end of the study. […] Data are presented as mean±sem, n=8 mice/group.
Tumor Xenograft Growth Studies. C.B17 SCID male mice (6-8 weeks old) were injected subcutaneously into the flank with 2,000,000 cells in serum-free media. […] Tumors were measured every 7 days by caliper measurements.

[3] = test system: SW620 cells expressing GFP-tagged Sec61β; assay: ER morphology by fluorescence microscopy in SW620 cells expressing GFP-Sec61β; type: cell-based; conditions: DKM 3-30 50 μM
Procedure: FIG. 8. ER Morphology in SW620 Colorectal Cancer Cells. SW620 cells expressing GFP-tagged Sec61β were treated with DKM 3-30 (50 μM) for the indicated times and the ER (light gray/white) and nuclear (dark gray) morphology visualized by fluorescence microscopy.
Fluorescence microscopy. SW620 and U2OS cells were transiently transfected with a plasmid encoding GFP-tagged Sec61β using fuGENE6 (Roche) according to the manufacturer's instructions. Transfected cells plated on poly-L-lysine treated coverslips were treated, washed in PBS, and fixed by incubation in 4% paraformaldehyde in PBS for 10 min. Fixed cells were washed extensively in PBS and nuclei stained by addition of 4′,6-diamidino-2-phenylindole (DAPI) (Thermo Fisher Scientific) for 10 min. Coverslips were mounted using Fluoromount-G (SouthernBiotech) and visualized using a DeltaVision Elite microscope outfitted with a 60× oil immersion objective. Acquired stacks of images of fixed cells were deconvolved and analyzed using SoftWoRx and ImageJ. For time-lapse imaging of live cells, transfected cells were plated on poly-L-lysine treated glass-bottom 4-well imaging chambers (Lab-Tek II; Thermo Fisher Scientific). Imaging was performed using a DeltaVision Elite microscope encased in a chamber that was maintained at 37° C. and was continuously perfused with humidified 5% CO2. Acquired images were analyzed using SoftWoRx and ImageJ.

## C=CC(=O)Nc1ccc(Oc2ccc(Cl)cc2)cc1 [DKM 3-30, N-(4-(4-chlorophenoxy)phenyl)acrylamide]
[1]
  tumor xenograft growth: initial regression and a sustained impairment in tumor growth
[2]
  body weight and signs of overt toxicity: without any changes in body weight or any signs of overt toxicity
[3]
  ER morphology in SW620 cells: suggest alterations in the ER morphology
